Assay results from patent US11197856B2, “Bicyclic compounds and methods for their use in treating autism” (priority 2013, dated 2021).

Experiments:
NMDA NR1 subunit = test: NMDA receptor-1 immunohistochemical staining of hippocampus; assay type: in vivo, male Wistar rats; details: CA1 and CA3; post-treatment
Procedure: Aged rats (male Wistar rats, 18-20 months old) were divided into four groups: two vehicle-treated (groups 1 and 3) and two G-2-AllylP treated (groups 2 and 4) (all groups n=6-8). Cyclic G-2-AllylP was synthesised by the Department of Medicinal Chemistry and dissolved in normal saline before the treatment. On day 1 a single dose of cyclic G-2-AllylP was given centrally (20 ng/animal, i.c.v.) to the animals in groups 2 and 4; saline was administered to groups 1 and 3. The memory tests using Novel Object Recognition Test started either on day 3 (groups 1 and 2) or 24 (groups 3 and 4) after the treatment. On the completion of the NORT, the rats were killed with an overdose of sodium pentobarbital and were perfused transcardially with normal saline followed by 10% formalin. Tissues collected at day 7 in groups 1 and 2, and at day 28 from groups 3 and 4. The brains were kept in the same fixative for a minimum of 2 days before being processed using a standard paraffin embedding procedure. Briefly, small blocks (10×10×3 mm) of tissue were fixed for up to 24 hrs. The blocks were then infiltrated and embedded with paraffin and cut in ribbons and mounted on slides. Slides were then stored until immunostaining was commenced. Synaptogenesis in brain tissue was examined using immunohistochemical staining. […]

[1] = test system: fmr1-knockout mice and wild-type littermates; test: Successive Alleys Test; assay type: in vivo
Procedure: The fmr1-knockout (KO2) mice (C57BL/6 background) were housed in groups of the same genotype in a temperature and humidity controlled room with a 12-h light-dark cycle (lights on 7 am to […]). Testing was conducted during the light phase. Food and water were available ad libitum. Testing was conducted on fmr1-knockout mice and their wild-type littermates. Experiments were conducted according to requirements of the UK Animals (Scientific Procedures) Act, 1986. The animals were divided into four groups:
In one study, we used a “Successive Alleys Test” device. This device consists of four successive, linearly connected increasingly anxiogenic alleys. Each succeeding alley was painted a lighter color, had lower walls and/or was narrower than the previous alley. Animals were placed at the closed end of alley 1 (A1), facing the end wall. The latency to first enter each alley (A2, A3, and/or A4), the amount of time spent in each alley, and the number of entries into each alley were recorded during a total test time of 300 seconds.
For a Successive Alleys Test, we measured the number of entries in Alley 1 (A1), Alley 2 (A2), Alley 3 (A3), and Alley 4 (A4) for each of the 4 groups of animals described above.

adult MeCP2+/- mice = test: Ocular dominance (OD) plasticity, optical imaging of intrinsic signals; assay type: in vivo; details: 4 days monocular deprivation
Procedure: Adult (>P60) wild type (SVEV or BL6) and MeCP2 (+/−) mutant females (BL6) are used for this experiment. The wild type control group is composed of both wild type littermates of MeCP2+/− females or wild type age matched SVEV females. For monocular deprivation, animals are anesthetized with Avertin (0.016 ml/g) and the eyelids of one eye is sutured for 4 days. Prior to imaging, the suture is removed and the deprived eye re-opened. Only animals in which the deprivation sutures are intact and the condition of the deprived eye appears healthy are used for the imaging session. For cG-2-AllylP signaling activation, a solution containing cG-2-AllylP is injected intra-peritoneally (IP) daily for the entire period of deprivation. For the imaging sessions mice are anesthetized with urethane (1.3 g/kg; 20% of the full dosage is administered IP each 20-minutes up to the final dosage, 0.02 ml of cloroprothixene 1% is also injected together with the first administration). The skull is exposed and a custom-made plate is glued on the head to minimize movement. The skull is thinned over VI with a dremel drill and covered with an agarose solution in saline (1.3%) and a glass coverslip. During the imaging session, the animal is constantly oxygenated, its temperature maintained with a heating blanket and the eyes periodically treated with silicone oil; physiological conditions are constantly monitored. […]

p-Akt = test: Phospho-flow cytometry of lymphocytes, p-Akt; assay type: in vivo; details: fmr1-knockout mice; 15, 30, 60 and 240 minutes after a single treatment
From the text: Lymphocytes are isolated from five fmr1-knockout and five wild-type titter mate control mice, per study time after injection with cG-2-AllylP. Lymphocytes are examined for activation of two signaling effectors, p-ERK1/2 and p-Akt using phosphorylation status as a measure of activation by flow cytometry (phospho-flow).
2. Flow cytometry total and phosphorylated AKT in lymphocytes

`C=CC[C@]12CCCN1C(=O)CNC2=O` [cG-2-AllylP, (8aS)-Allyl-hexahydropyrrolo[1,2-a]pyrazine-1,4-dione] was tested. Which “changes in the NMDA receptors” value (NMDA NR1 subunit) did it give?
The value was “not so pronounced”.

And the “number of entries into arm A1” value ([1]; fmr1-knockout animals)?
Its value is “about 4 times”.

And the “number of entries into arm A2” value ([1]; fmr1-knockout animals)?
Its value is “about 4 times”.

What about the “number of entries into arm A3” value ([1]; fmr1-knockout animals) of the same compound?
Its value is “about 4 times”.

And the “number of entries into arm A4” value ([1]; fmr1-knockout animals)?
The value was “about 3 times”.

And the open arm entries ([1]; fmr1-knockout animals vs vehicle, p<0.001)?
Its open arm entries is “significant reduction in open arm entries”.

And the “time spent in the center” value ([1]; fmr1-knockout animals vs vehicle, p<0.005)?
Its value is “significant reduction”.

And the “number of entries into arm A1” value ([1]; wild-type animals)?
The value was “about 2 times”.

What about the “number of entries into arm A2” value ([1]; wild-type animals) of the same compound?
Its value is “about 4 times”.

What about the OD plasticity (adult MeCP2+/- mice) of the same compound?
Its OD plasticity is “reduces the OD plasticity”.

What about the “mean fluorescent intensity (MFI) for p-AKT” value (p-Akt) of the same compound?
The value was “decreases at all time points”.
